# In patent US20090281049A1, “New use of ginsenoside compound-k in manufacturing medicaments” (priority 2006, published 2009):
# How the values were obtained:
# [1] = test system: carrageenan-induced acute inflammation in rats; assay: Carrageenan-induced paw edema in rats; format: in vivo, Rat, SD strain; conditions: 1 mg/kg po
# Procedure: Animals were firstly divided into large dose group: 10 mg/kg, iv, medium dose group: 5 mg/kg, iv, small dose group: 2.5 mg/kg, iv, an Indomethacin group: 1 mg/kg, po and a blank control group: physiological saline 10 mg/kg, iv. The animals were administered by the foregoing method for 3 days. The volume of the right hind paw of the rats was measured using hydroplethismometer before inflammation induced. 1 hour after the last administration, 0.1 ml 1% carrageenan was injected into the plantar surface of the right hind paw in order to induce inflammation. The volume of the right hind paw of the rats was measured by hydroplethismometer every other hour thereafter respectively. Swell rate and inhibition rate were calculated by the same method as above. Differences among groups were compared with t test.
# [2] = test system: carrageenan-induced acute inflammation in mice; assay: Carrageenan-induced paw edema in mice; format: in vivo, Kunming mice; conditions: 1 mg/kg po
# [3] = test system: Adjuvant Arthritis in rats; assay: Preventive effect on adjuvant induced adjuvant arthritis in rats; format: in vivo, Rat, SD strain; conditions: 1 mg/kg po
# Procedure: (§1) Freund's Adjuvant Complete, purchased from Sigma Company, was injected into the plantar surface of the right hind paw by 0.1 ml in order to induce inflammation in rats.
# (§2) Animals were firstly divided into large dose group: 10 mg/kg, iv, medium dose group: 5 mg/kg, iv, small dose group: 2.5 mg/kg, iv, Indomethacin group: 1 mg/kg, po, Tripterygium Wilfordii Hook group: 1.5 mg/kg, po and blank control group: physiological saline 10 mg/kg, iv. The volume of the right hind paw of the rats was measured by using hydroplethismometer before inflammation induced. Then 0.1 ml Freund's Adjuvant Complete was injected into the plantar surface of the right hind paw in order to induce inflammation in rats. The rats were grouped by the foregoing division way in the succeeding day, and to be administered for 15 days. The volume of paw was measured in regular intervals. Swell rate and inhibition rate were calculated by the same method as the foregoing. Differences among groups were compared by t test.
# [4] = test system: Adjuvant Arthritis in rats; assay: Treatment effect on adjuvant induced adjuvant arthritis in rats; format: in vivo, Rat, SD strain; conditions: 1 mg/kg po
# Procedure: as §1
# as §2, with “1.5 mg/kg, po. and blank” for “1.5 mg/kg, po and blank”, “in rats. 20 days after inflammation induced, the rats were” for “in rats. The rats were”, “foregoing division method and to” for “foregoing division way in the succeeding day, and to”, “administered for 8 days. The” for “administered for 15 days. The”, “were calculated with the same” for “were calculated by the same”, “were compared with t test.” for “were compared by t test.”
# [5] = test system: Collagen Type II (CII) induced arthritis in rats; assay: Treatment effect on Collagen Type II (CII) induced arthritis in rats; format: in vivo, Rat, SD strain; conditions: 9 mg/kg sc
# Procedure: (§3) Inflammation-induced agent: Collagen Type II was dissolved in 0.1 mol/L acetic acid to make final concentration be 2 mg/ml collagen solution, and held in 4° C. overnight. The Collagen Type II solution was added to cold Freund's Adjuvant Incomplete by drops (Collagen Type II: Freund's Adjuvant Incomplete=1:1) on the next day, emulsified completely (Type II Collagen solution: Freund's Adjuvant Incomplete=1:1), and the final concentration of Collagen Type II was 1 mg/ml. The Collagen Type II emulsion was reserved in a refrigerator at 4° C.
# (§4) Immune method: Each rat was immunized by being injected subcutaneously at 5 points on the back with 0.1 ml emulsion in each point, total of […] (contained 0.5 mg Collagen Type II), and immunized again in the same way 7 days later. An emulsion of 0.1 mol/L acetic acid and Freund's Adjuvant Incomplete was injected in control group. The swell values of the arthrosis in right hind ankle and foot were measured respectively by using a hydroplethismometer before injection and 20 days after immunization.
# Collagen Type II (CII) and Freund's Adjuvant Incomplete were ground into emulsion and were injected subcutaneously into the back of the rats for immunization. Until the 19th day, most parts of the pedal joint of the rats began to swell. Picked 40 rats out which were with swelled pedal joint and divided them into […] subsequently, i.e. 8 rats in each group. They are respectively […]: Ginsenoside Compound-K, 10 mg/kg, iv, medium dose group: Ginsenoside Compound-K, 5 mg/kg, iv, small dose group: Ginsenoside Compound-K, 2.5 mg/kg, iv, Enbrel group: 9 mg/kg, sc, Tripterygium Wilfordii Hook group: 1.5 mg/kg, po. and blank control group: physiological saline 10 mg/kg, iv. The rats were administered for 8 days consecutively. The swell value of the foot was measured respectively by using hydroplethismometer before inflammation induced and at different time after the onset of symptoms, then calculated swell rate and prohibition rate, and compared the differences among groups with t test.
# [6] = test system: Collagen Type II (CII) induced arthritis in rats; assay: Preventive effect on Collagen Type II (CII) induced arthritis in rats; format: in vivo, Rat, SD strain; conditions: 9 mg/kg sc
# Procedure: as §3, §4
# The Collagen Type II solution, which had been dissolved in acetic acid and held overnight, was adjusted to concentration 2 mg/ml, then added by drops slowly to Freund's Adjuvant Incomplete in proportion of 1:1. After the mixture was emulsified completely, each rat was injected subcutaneously at 5 points on the back with 0.1 ml emulsion in each point (total 0.5 ml in each rat, containing 0.5 mg Collagen Type II) for the first immunization. 7 days later, the second immunization was repeated in the same way.
# The animals were divided into large dose group: Ginsenoside Compound-K, 10 mg/kg, iv, medium dose group: Ginsenoside Compound-K, 5 mg/kg, iv, small dose group: Ginsenoside Compound-K, 2.5 mg/kg, iv, Tripterygium Wilfordii Hook group: 1.5 mg/kg, po-, Enbrel group: 9 mg/kg, sc and blank control group: physiological saline 10 mg/kg, iv. The animals of administration groups were administered at the first immunization and stopped administering 8 days after the first immunization. The swell value of arthrosis in ankle and foot was measured by using hydroplethismometer before immunization and on day 20, 22, 24, 27 and 29 after the first immunization respectively. Swell rate and inhibition rate were calculated by the same method as the foregoing. Differences among groups were compared with t test. When the treatment finished, the arthroses in ankle and foot were taken for pathological examination.
compound,measurement,setting,value
"COc1ccc2c(c1)c(CC(=O)O)c(C)n2C(=O)c1ccc(Cl)cc1 [Indomethacin, reference compound]",swell value,[1]; 0 h,1.34 ± 0.15 mL
same,inhibition rate,[1]; 1 h,<4.23> %
same,swell rate,[1]; 1 h,(22.51 ± 10.19) %
same,swell value,[1]; 1 h,1.68 ± 0.10 mL
same,inhibition rate,[1]; 2 h,<20.44> %
same,swell rate,[1]; 2 h,(25.65 ± 14.10) %
same,swell value,[1]; 2 h,1.72 ± 0.16 mL
same,inhibition rate,[1]; 3 h,<20.17> %
same,swell rate,[1]; 3 h,(33.28 ± 13.54) %
same,swell value,[1]; 3 h,1.82 ± 0.17 mL
same,inhibition rate,[1]; 4 h,<26.76> %
same,swell rate,[1]; 4 h,(28.45 ± 15.71) %
same,swell value,[1]; 4 h,1.77 ± 0.22 mL
same,inhibition rate,[1]; 5 h,<37.84> %
same,swell rate,[1]; 5 h,(23.04 ± 11.45) %
same,swell value,[1]; 5 h,1.69 ± 0.15 mL
same,swell value,[2]; 0 h,1.47 ± 0.14 mL
same,inhibition rate,[2]; 1 h,<2.39> %
same,swell rate,[2]; 1 h,(67.11 ± 17.30) %
same,swell value,[2]; 1 h,2.44 ± 0.19 mL
same,inhibition rate,[2]; 2 h,<16.11> %
same,swell rate,[2]; 2 h,(60.95 ± 18.36) %
same,swell value,[2]; 2 h,2.35 ± 0.20 mL
same,inhibition rate,[2]; 4 h,<36.57> %
same,swell rate,[2]; 4 h,(51.04 ± 14.09) %
same,swell value,[2]; 4 h,2.21 ± 0.11 mL
same,inhibition rate,[2]; 6 h,<24.41> %
same,swell rate,[2]; 6 h,(55.36 ± 19.90) %
same,swell value,[2]; 6 h,2.26 ± 0.11 mL
same,swell value,[3]; 0 day,1.23 ± 0.11 mL
same,inhibition rate,[3]; 2 day,<27.67> %
same,swell rate,[3]; 2 day,(52.34 ± 15.07) %
same,swell value,[3]; 2 day,1.85 ± 0.09 mL
same,inhibition rate,[3]; 4 day,<20.69> %
same,swell rate,[3]; 4 day,(70.99 ± 17.35) %
same,swell value,[3]; 4 day,2.08 ± 0.13 mL
same,inhibition rate,[3]; 6 day,<12.34> %
same,swell rate,[3]; 6 day,(78.32 ± 23.41) %
same,swell value,[3]; 6 day,2.17 ± 0.17 mL
same,inhibition rate,[3]; 9 day,<4.11> %
same,swell rate,[3]; 9 day,(69.44 ± 27.12) %
same,swell value,[3]; 9 day,2.06 ± 0.23 mL
same,inhibition rate,[3]; 11 day,<32.39> %
same,swell rate,[3]; 11 day,(52.68 ± 12.02) %
same,swell value,[3]; 11 day,1.86 ± 0.13 mL
same,inhibition rate,[3]; 13 day,<35.93> %
same,swell rate,[3]; 13 day,(53.00 ± 15.57) %
same,swell value,[3]; 13 day,1.86 ± 0.13 mL
same,inhibition rate,[3]; 15 day,<35.50> %
same,swell rate,[3]; 15 day,(52.00 ± 11.27) %
same,swell value,[3]; 15 day,1.86 ± 0.13 mL
same,swell value,[4]; 0 day,1.14 ± 0.05 mL
same,inhibition rate,[4]; 19 day,<18.65> %
same,swell rate,[4]; 19 day,(80.03 ± 17.69) %
same,swell value,[4]; 19 day,2.04 ± 0.20 mL
same,inhibition rate,[4]; 21 day,<19.05> %
same,swell rate,[4]; 21 day,(85.98 ± 15.49) %
same,swell value,[4]; 21 day,2.11 ± 0.17 mL
same,inhibition rate,[4]; 23 day,<19.09> %
same,swell rate,[4]; 23 day,(86.16 ± 15.90) %
same,swell value,[4]; 23 day,2.11 ± 0.17 mL
same,inhibition rate,[4]; 26 day,<20.41> %
same,swell rate,[4]; 26 day,(89.32 ± 16.25) %
same,swell value,[4]; 26 day,2.15 ± 0.16 mL
same,inhibition rate,[4]; 30 day,<12.14> %
same,swell rate,[4]; 30 day,(92.39 ± 20.26) %
same,swell value,[4]; 30 day,2.18 ± 0.23 mL
enbrel,swell value,[5]; 0 day,1.00 ± 0.08 mL
same,inhibition rate,[5]; 20 day,<4.41> %
same,swell rate,[5]; 20 day,(51.65 ± 15.35%
same,swell value,[5]; 20 day,1.51 ± 0.11 mL
same,inhibition rate,[5]; 22 day,<17.61> %
same,swell rate,[5]; 22 day,(49.63 ± 25.60) %
same,swell value,[5]; 22 day,1.48 ± 0.15 mL
same,inhibition rate,[5]; 23 day,<20.98> %
same,swell rate,[5]; 23 day,(49.20 ± 19.86) %
same,swell value,[5]; 23 day,1.48 ± 0.12 mL
same,inhibition rate,[5]; 25 day,<24.74> %
same,swell rate,[5]; 25 day,(46.43 ± 15.37) %
same,swell value,[5]; 25 day,1.46 ± 0.11 mL
same,inhibition rate,[5]; 28 day,<27.88> %
same,swell rate,[5]; 28 day,(37.24 ± 17.23) %
same,swell value,[5]; 28 day,1.36 ± 0.09 mL
same,inhibition rate,[5]; 31 day,<26.03> %
same,swell rate,[5]; 31 day,(36.24 ± 14.64) %
same,swell value,[5]; 31 day,1.35 ± 0.08 mL
same,swell value,[6]; 0 day,1.06 ± 0.04 mL
same,inhibition rate,[6]; 20 day,<30.52> %
same,swell rate,[6]; 20 day,(36.48 ± 15.50) %
same,swell value,[6]; 20 day,1.38 ± 0.20 mL
same,inhibition rate,[6]; 22 day,<31.53> %
same,swell rate,[6]; 22 day,(35.30 ± 14.25) %
same,swell value,[6]; 22 day,1.36 ± 0.22 mL
same,inhibition rate,[6]; 24 day,<35.50> %
same,swell rate,[6]; 24 day,(33.88 ± 13.57) %
same,swell value,[6]; 24 day,1.34 ± 0.21 mL
same,inhibition rate,[6]; 27 day,<36.49> %
same,swell rate,[6]; 27 day,(32.16 ± 15.12) %
same,swell value,[6]; 27 day,1.34 ± 0.20 mL
same,inhibition rate,[6]; 29 day,<36.99> %
same,swell rate,[6]; 29 day,(27.63 ± 10.87) %
same,swell value,[6]; 29 day,1.31 ± 0.16 mL
